According to PubChem BioAssay (NCI):
“And” between values parts separate entries of the source, which are not always exact repeats. Identical values can stand only once.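 These data come from cells grown in 96-well plates and exposed to compound for 48 hours at five concentrations. The concentration for 50% growth inhibition is given as GI50. TGI denotes the concentration required for complete inhibition of growth.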

Legend:
Assay in all cases: NCI tumour cell line growth inhibition, 48 h
[1] = tested on: DMS 273 small cell lung
[2] = tested on: SR leukemia
[3] = tested on: RXF 393 renal
[4] = tested on: IGROV1 ovarian
[5] = tested on: OVCAR-5 ovarian
[6] = tested on: HOP-62 NSCLC
[7] = tested on: SK-OV-3 ovarian
[8] = tested on: SK-MEL-2 melanoma
[9] = tested on: CCRF-CEM leukemia
[10] = tested on: ACHN renal
[11] = tested on: RPMI-8226 leukemia
[12] = tested on: 786-0 renal
[13] = tested on: NCI-H460 lung
[14] = tested on: A549 NSCLC
[15] = tested on: M14 melanoma
[16] = tested on: RXF-631 renal
[17] = tested on: SNB-75 CNS
[18] = tested on: MOLT-4 leukemia
[19] = tested on: SK-MEL-28 melanoma
[20] = tested on: SF-539 CNS
[21] = tested on: UO-31 renal
[22] = tested on: HCT-116 colon
[23] = tested on: A498 renal
[24] = tested on: SW-620 colon
[25] = tested on: OVCAR-8 ovarian
[26] = tested on: KM12 colon
[27] = tested on: HCT-15 colon
[28] = tested on: M19-MEL melanoma
[29] = tested on: K-562 leukemia
[30] = tested on: SNB-78 CNS
[31] = tested on: KM20L2 colon
[32] = tested on: NCI-H226 lung
[33] = tested on: HL-60(TB) leukemia
[34] = tested on: UACC-62 melanoma
[35] = tested on: SNB-19 CNS
[36] = tested on: NCI-H522 lung
[37] = tested on: LXFL 529 NSCLC
[38] = tested on: UACC-257 melanoma
[39] = tested on: HCC-2998 colon
[40] = tested on: NCI-H23 lung
[41] = tested on: OVCAR-3 ovarian
[42] = tested on: DLD-1 colon
[43] = tested on: MALME-3M melanoma
[44] = tested on: EKVX NSCLC
[45] = tested on: HT29 colon
[46] = tested on: COLO 205 colon
[47] = tested on: U251 CNS
[48] = tested on: SF-295 CNS
[49] = tested on: SN12C renal
[50] = tested on: TK-10 renal
[51] = tested on: DMS 114 small cell lung
[52] = tested on: SF-268 CNS
[53] = tested on: OVCAR-4 ovarian
[54] = tested on: HOP-92 NSCLC
[55] = tested on: MDA-MB-231 breast
[56] = tested on: MDA-N
[57] = tested on: T-47D breast
[58] = tested on: SK-MEL-5 melanoma
[59] = tested on: HOP-18 NSCLC
[60] = tested on: MCF7 breast
[61] = tested on: BT-549 breast
[62] = tested on: LOX IMVI melanoma
[63] = tested on: XF 498 CNS
[64] = tested on: MDA-MB-435
[65] = tested on: HS 578T breast
[66] = tested on: DU-145 prostate
[67] = tested on: CAKI-1 renal
[68] = tested on: PC-3 prostate

`O=C(CC1(O)C(=O)Nc2ccc([N+](=O)[O-])cc21)c1ccc2ccccc2c1` (stereo not drawn) gave a TGI [1] greater than 100000 nM, a TGI [2] greater than 100000 nM and a TGI [3] greater than 100000 nM. The TGI [4] was greater than 100000 nM, the TGI [5] was greater than 100000 nM and the TGI [6] was greater than 100000 nM. The TGI [7] was greater than 100000 nM, the TGI [8] was greater than 100000 nM and the TGI [9] was greater than 100000 nM. It also gave a TGI [10] greater than 100000 nM, a TGI [11] greater than 100000 nM and a TGI [12] greater than 100000 nM. The TGI [13] was greater than 100000 nM, the TGI [14] was greater than 100000 nM and the TGI [15] was greater than 100000 nM. The TGI [16] was greater than 100000 nM, the TGI [17] was greater than 100000 nM and the TGI [18] was greater than 100000 nM. The TGI [19] was greater than 100000 nM, the TGI [20] was greater than 100000 nM and the TGI [21] was greater than 100000 nM. The TGI [22] was greater than 100000 nM, the TGI [23] was greater than 100000 nM and the TGI [24] was greater than 100000 nM. It also gave a TGI [25] greater than 100000 nM, a TGI [26] greater than 100000 nM and a TGI [27] greater than 100000 nM. For the same molecule, the TGI [28] was greater than 100000 nM, the TGI [29] was greater than 100000 nM and the TGI [30] was greater than 100000 nM. For the same molecule, the TGI [31] was greater than 100000 nM, the TGI [32] was greater than 100000 nM and the TGI [33] was greater than 100000 nM. For the same molecule, the TGI [34] was greater than 100000 nM, the TGI [35] was greater than 100000 nM and the TGI [36] was greater than 100000 nM. It also gave a TGI [37] greater than 100000 nM, a TGI [38] greater than 100000 nM and a TGI [39] greater than 100000 nM. It also gave a TGI [40] greater than 100000 nM, a TGI [41] greater than 100000 nM and a TGI [42] greater than 100000 nM. For the same molecule, the TGI [43] was greater than 100000 nM, the TGI [44] was greater than 100000 nM and the TGI [45] was greater than 100000 nM. For the same molecule, the TGI [46] was greater than 100000 nM, the TGI [47] was greater than 100000 nM and the TGI [48] was greater than 100000 nM. For the same molecule, the TGI [49] was greater than 100000 nM, the TGI [50] was greater than 100000 nM and the TGI [51] was greater than 100000 nM. The TGI [52] was greater than 100000 nM and the TGI [53] was greater than 100000 nM.

`O=[N+]([O-])c1cccc2nc3ccccc3c(NCCO)c12` showed a TGI [1] of 48.1 nM, a GI50 [2] of 1.39 nM and a TGI [2] of 7.31 nM. For the same molecule, the GI50 [3] was 0.14 nM, the TGI [3] was 3.95 nM and 0.815 nM and the GI50 [4] was 11.8 nM. For the same molecule, the TGI [4] was 13.9 nM and 72.4 nM, the GI50 [5] was 0.703 nM and the TGI [5] was 9.29 nM and 3.07 nM. The GI50 [54] was 1.22 nM, the TGI [54] was 4.61 nM and 5.48 nM and the TGI [6] was 2.05 nM. The GI50 [7] was 4.69 nM, the GI50 [8] was 0.338 nM and the TGI [8] was 0.857 nM. For the same molecule, the GI50 [55] was 0.118 nM, the GI50 [56] was 0.0322 nM and the GI50 [9] was 3.79 nM. For the same molecule, the TGI [9] was greater than 100 nM, the GI50 [10] was 0.189 nM and the TGI [10] was 4.05 nM and 2.47 nM. The TGI [57] was 4.8 nM, the GI50 [58] was 0.279 nM and the TGI [58] was 1.12 nM. It also gave a GI50 [11] of 0.0396 nM, a GI50 [12] of 0.265 nM and a TGI [12] of 2.1 nM. For the same molecule, the TGI [59] was greater than 100 nM, the GI50 [13] was 0.0272 nM and the GI50 [14] was 0.154 nM. The TGI [14] was 1.46 nM, the TGI [15] was 0.799 nM and the GI50 [60] was 0.113 nM. For the same molecule, the TGI [60] was 0.471 nM, the GI50 [61] was 0.108 nM and the TGI [61] was 0.295 nM. The TGI [17] was 5.01 nM, the GI50 [18] was 1.34 nM and the TGI [18] was greater than 100 nM. The GI50 [19] was 0.707 nM, the TGI [62] was 11.9 nM and 16.9 nM and the TGI [63] was 4.37 nM. It also gave a GI50 [20] of 0.647 nM, a TGI [20] of 2.14 nM and a GI50 [21] of 0.336 nM. For the same molecule, the TGI [21] was 5.76 nM and 1.73 nM, the GI50 [22] was 0.0418 nM and the TGI [22] was 0.47 nM. For the same molecule, the GI50 [23] was 9.34 nM, the TGI [23] was 36.7 nM and the GI50 [24] was 0.0593 nM. The TGI [24] was 1.4 nM, the GI50 [25] was 1.21 nM and the TGI [25] was 19.2 nM. The GI50 [26] was 1.1 nM, the TGI [26] was 12.9 nM and the GI50 [27] was 0.293 nM. The TGI [27] was 4.25 nM, the TGI [28] was 8.48 nM and the GI50 [64] was 0.0714 nM. The GI50 [29] was 1.26 nM, the TGI [30] was 50.4 nM and 12 nM and the GI50 [65] was 0.298 nM. It also gave a TGI [65] of 0.802 nM, a TGI [31] of 3.57 nM and a GI50 [32] of 3.22 nM. For the same molecule, the TGI [32] was 9.82 nM and 19.8 nM, the GI50 [66] was 0.0482 nM and the TGI [66] was 1.95 nM. The GI50 [33] was 1.18 nM, the TGI [33] was greater than 100 nM and the GI50 [34] was 0.705 nM. The GI50 [67] was 0.484 nM, the TGI [67] was 2.93 nM and the GI50 [68] was 0.136 nM. The TGI [68] was 0.414 nM, the GI50 [35] was 1.2 nM and the TGI [35] was 87.8 nM. The GI50 [36] was 0.527 nM, the TGI [36] was 1.52 nM and the TGI [37] was 15.7 nM. It also gave a GI50 [38] of 0.999 nM, a TGI [38] of 3.84 nM and a GI50 [39] of 1.46 nM. The TGI [39] was 3.67 nM and 3.38 nM, the GI50 [40] was 0.464 nM and the TGI [40] was 5.23 nM and 1.92 nM. The GI50 [41] was 2.87 nM, the TGI [41] was 1.78 nM and the TGI [42] was 3.08 nM. The GI50 [43] was 0.525 nM, the TGI [43] was 1.7 nM and the GI50 [44] was 5.47 nM. For the same molecule, the TGI [44] was 3.73 nM, the GI50 [45] was 1.82 nM and the TGI [45] was 6.86 nM and 3.46 nM. The GI50 [46] was 0.181 nM, the TGI [46] was 6.4 nM and 0.73 nM and the GI50 [47] was 0.4 nM. For the same molecule, the TGI [47] was 5.18 nM, the GI50 [48] was 0.952 nM and the TGI [48] was 13.7 nM. The GI50 [49] was 0.299 nM, the TGI [49] was 2.32 nM and the GI50 [50] was 0.594 nM. The TGI [50] was 9.35 nM and 2.74 nM, the TGI [51] was 14.2 nM and the GI50 [52] was 0.25 nM. The TGI [52] was 3.77 nM and 10.7 nM and the TGI [53] was 2.93 nM and 26.7 nM.
